The subject of experiment [1] is SFN / TAZ phosphopeptide substrate. Briefly: Fluorescence polarization, 14-3-3 SFN with TAZ phosphopeptide substrate. Type of experiment: binding. The settings on record: SFN with C38 and C96 mutated to serines.
Experiment [2] relates to 14-3-3 SFN protein / ERα phosphopeptide substrate. Briefly: Fluorescence polarization, 14-3-3 SFN with ERα phosphopeptide substrate. The settings on record: SFN with C38 and C96 mutated to serines. In kind it is binding. How it is done: We performed a fluorescence polarization screen with our cysteine-reactive covalent ligand libraries to identify 14-3-3 covalent molecular glues that enhance interactions of SFN with phosphopeptide 14-3-3 interacting sequences ERα. This screen was performed with recombinant pure 14-3-3 SFN protein and a 5-FAM- or rhodamine-conjugated ERα phosphopeptide substrate looking for cysteine-reactive covalent ligands that would stabilize 14-3-3 interactions with the phosphopeptide substrate.

In experiment [3] the test system is ERα transcription factor luciferase reporter in T47D breast cancer cells. Briefly: ERα luciferase reporter activity. Type of experiment: cell-based. An excerpt: (§1) […]. […] […]. […] […].
A general note: A reporter such as luciferase makes a cellular process visible.

Experiment [4] has as its system Hippo pathway transcription factor luciferase reporter in MCF7 breast cancer cells. The experiment in a line: Hippo pathway transcription factor luciferase reporter activity. In kind it is cell-based.
Source text: as §1

[5] abbreviates: SFN knockdown, breast cancer cells.

Regarding `C=CC(=O)N1CCC2(CCN(Cc3ccccc3)C2)C1` (stereo not drawn) [EN171], in experiment [1], the “EN171-mediated stabilization of 14-3-3 interactions with TAZ” value is reported as “significantly attenuated”. In addition, the “EN171-mediated stabilization of 14-3-3 interactions with ERα” value in experiment [2] is given as “significantly attenuated”. The “EN171-mediated inhibition of ERα transcriptional activity” value in experiment [3] (setting [5]) is recorded as “significantly attenuated”. The “Inhibition of ERα luciferase reporter activity” value in experiment [3] (T47D breast cancer cells) is given as “dose-responsive inhibition”. Besides, the “Inhibition of Hippo pathway transcription factor luciferase reporter activity” value in experiment [4] (MCF7 breast cancer cells) is given as “dose-responsive inhibition”. Also, the “EN171-mediated inhibition of Hippo pathway transcriptional activity” value in experiment [4] (setting [5]) is “significantly attenuated”.

These data come from patent publication US20240319200A1, “Covalent Molecular Glue Stabilizers and Platform” (The Regents of the University of California, priority 2021, published 2024).
